Assay results: US8183262B2, “Pyridine derivatives as mGluR2 antagonists” (Hoffmann-La Roche Inc., priority 2007, dated 2012)

Compound	melting point [°C]
Cc1cc(-c2ccc(C(F)(F)F)cc2)nc(-c2nc(-c3ccc(S(N)(=O)=O)cc3)no2)n1 [Example 118, 4-{5-[4-Methyl-6-(4-trifluoromethyl-phenyl)-pyrimidin-2-yl]-[1,2,4]oxadiazol-3-yl}-benzenesulfonamide]	326
Cc1cc(-c2ccc(C(F)(F)F)c(C)c2)nc(-n2cnc(-c3ccc(N)nc3)c2)n1 [Example 122, 5-{1-[4-Methyl-6-(3-methyl-4-trifluoromethyl-phenyl)-pyrimidin-2-yl]-1H-imidazol-4-yl}-pyridin-2-ylamine]	247.5
Cc1cc(-c2ccc(C(F)(F)F)c(C)c2)nc(-n2cnc(-c3cnc(N)nc3)c2)n1 [Example 123, 5-{1-[4-Methyl-6-(3-methyl-4-trifluoromethyl-phenyl)-pyrimidin-2-yl]-1H-imidazol-4-yl}-pyrimidin-2-ylamine]	248
Cc1cc(-c2cc(C(F)(F)F)nc(-n3cnc(-c4cnc(N)nc4)c3)n2)ccc1C(F)(F)F [Example 125, 5-{1-[4-(3-Methyl-4-trifluoromethyl-phenyl)-6-trifluoromethyl-pyrimidin-2-yl]-1H-imidazol-4-yl}-pyrimidin-2-ylamine]	297
Cc1cc(-c2ccc(C(F)(F)F)cc2)nc(-c2nc(-c3cccc(S(N)(=O)=O)c3)no2)n1 [Example 126, 3-{5-[4-Methyl-6-(4-trifluoromethyl-phenyl)-pyrimidin-2-yl]-[1,2,4]oxadiazol-3-yl}-benzenesulfonamide]	240.5
Cc1cc(-c2ccc(C(F)(F)F)cc2)nc(-c2nc(-c3ccc(N)nc3)no2)n1 [Example 127, 5-{5-[4-Methyl-6-(4-trifluoromethyl-phenyl)-pyrimidin-2-yl]-[1,2,4]oxadiazol-3-yl}-pyridin-2-ylamine]	216.5
Cc1cc(-c2cc(C(F)(F)F)nc(-c3nc(-c4ccc(S(N)(=O)=O)cc4)no3)n2)ccc1C(F)(F)F [Example 128, 4-{5-[4-(3-Methyl-4-trifluoromethyl-phenyl)-6-trifluoromethyl-pyrimidin-2-yl]-[1,2,4]oxadiazol-3-yl}-benzenesulfonamide]	261
Cc1cc(-c2ccc(Cl)cc2)nc(-c2nc(-c3ccc(S(N)(=O)=O)cc3)no2)n1 [Example 136, 4-{5-[4-(4-Chloro-phenyl)-6-methyl-pyrimidin-2-yl]-[1,2,4]oxadiazol-3-yl}-benzenesulfonamide]	297
Cc1cc(-c2ccc(Cl)cc2)nc(-c2nc(-c3ccc(N)nc3)no2)n1 [Example 137, 5-{5-[4-(4-Chloro-phenyl)-6-methyl-pyrimidin-2-yl]-[1,2,4]oxadiazol-3-yl}-pyridin-2-ylamine]	258
Cc1cc(-c2ccc(Cl)c(Cl)c2)nc(-n2cnc(-c3cnc(N)nc3)c2)n1 [Example 144, 5-{1-[4-(3,4-Dichloro-phenyl)-6-methyl-pyrimidin-2-yl]-1H-imidazol-4-yl}-pyrimidin-2-ylamine]	255.5
Cc1cc(-c2ccc(Cl)c(Cl)c2)nc(-n2cnc(-c3ccc(N)nc3)c2)n1 [Example 145, 5-{1-[4-(3,4-Dichloro-phenyl)-6-methyl-pyrimidin-2-yl]-1H-imidazol-4-yl}-pyridin-2-ylamine]	213
Cc1cc(-c2ccc(Cl)c(Cl)c2)nc(-c2ccnc(-c3ccc(N)nc3)c2)n1 [Example 146, 4-[4-(3,4-Dichloro-phenyl)-6-methyl-pyrimidin-2-yl]-[2,3′]bipyridinyl-6′-ylamine]	205
Cc1cc(-c2ccc(C(F)(F)F)cc2)nc(-n2cc(-c3ccc(N)nc3)nc2C)n1 [Example 150, 5-{2-Methyl-1-[4-methyl-6-(4-trifluoromethyl-phenyl)-pyrimidin-2-yl]-1H-imidazol-4-yl}-pyridin-2-ylamine]	227.5
Cc1cc(-c2ccc(C(F)(F)F)cc2)nc(-n2cnc(-c3ccc(N)nc3)n2)n1 [Example 151, 5-{1-[4-Methyl-6-(4-trifluoromethyl-phenyl)-pyrimidin-2-yl]-1H-[1,2,4]triazol-3-yl}-pyridin-2-ylamine]	244
CC(C)c1cc(-c2ccc(C(F)(F)F)cc2)nc(-n2cnc(-c3ccc(N)nc3)c2)n1 [Example 152, 5-{1-[4-Isopropyl-6-(4-trifluoromethyl-phenyl)-pyrimidin-2-yl]-1H-imidazol-4-yl}-pyridin-2-ylamine]	274.5
CC(C)c1cc(-c2ccc(C(F)(F)F)cc2)nc(-n2cnc(-c3cnc(N)nc3)c2)n1 [Example 153, 5-{1-[4-Isopropyl-6-(4-trifluoromethyl-phenyl)-pyrimidin-2-yl]-1H-imidazol-4-yl}-pyrimidin-2-ylamine]	277

More lines, now with the values ahead:

melting point [°C]	Compound
207	Cc1cc(-c2cc(C(F)(F)F)nc(-c3cccc(-c4ccc(N)nc4)c3)n2)ccc1C(F)(F)F [Example 119, 5-{3-[4-(3-Methyl-4-trifluoromethyl-phenyl)-6-trifluoromethyl-pyrimidin-2-yl]-phenyl}-pyridin-2-ylamine]
290	Cc1cc(-c2cc(C(F)(F)F)nc(-n3cnc(-c4ccc(N)nc4)c3)n2)ccc1C(F)(F)F [Example 120, 5-{1-[4-(3-Methyl-4-trifluoromethyl-phenyl)-6-trifluoromethyl-pyrimidin-2-yl]-1H-imidazol-4-yl}-pyridin-2-ylamine]
223	Cc1cc(-c2cc(C(F)(F)F)nc(-c3ccnc(-c4ccc(N)nc4)c3)n2)ccc1C(F)(F)F [Example 121, 4-[4-(3-Methyl-4-trifluoromethyl-phenyl)-6-trifluoromethyl-pyrimidin-2-yl]-[2,3′]bipyridinyl-6′-ylamine]
244	Cc1cc(-c2cc(C(F)(F)F)nc(-c3cccc(-c4cnc(N)nc4)c3)n2)ccc1C(F)(F)F [Example 124, 5-{3-[4-(3-Methyl-4-trifluoromethyl-phenyl)-6-trifluoromethyl-pyrimidin-2-yl]-phenyl}-pyrimidin-2-ylamine]
223.5	Cc1cc(-c2cc(C(F)(F)F)nc(-c3nc(-c4cccc(S(N)(=O)=O)c4)no3)n2)ccc1C(F)(F)F [Example 129, 3-{5-[4-(3-Methyl-4-trifluoromethyl-phenyl)-6-trifluoromethyl-pyrimidin-2-yl]-[1,2,4}oxadiazol-3-yl]-benzenesulfonamide]
223	Cc1cc(-c2cc(C(F)(F)F)nc(-c3nc(-c4ccc(N)nc4)no3)n2)ccc1C(F)(F)F [Example 130, 5-{5-[4-(3-Methyl-4-trifluoromethyl-phenyl)-6-trifluoromethyl-pyrimidin-2-yl]-[1,2,4]oxadiazol-3-yl}-pyridin-2-ylamine]
188	Cc1cc(-c2ccc(C(F)(F)F)c(C)c2)nc(-c2ccnc(-c3ccc(N)nc3)c2)n1 [Example 131, 4-[4-Methyl-6-(3-methyl-4-trifluoromethyl-phenyl)-pyrimidin-2-yl]-[2,3′]bipyridinyl-6′-ylamine]
153	Cc1cc(-c2ccc(C(F)(F)F)c(C)c2)nc(-c2cccc(-c3ccc(N)nc3)c2)n1 [Example 132, 5-{3-[4-Methyl-6-(3-methyl-4-trifluoromethyl-phenyl)-pyrimidin-2-yl]-phenyl}-pyridin-2-ylamine]
220	Nc1ccc(-c2cccc(-c3nc(-c4ccc(C(F)(F)F)c(OCC(F)(F)F)c4)cc(C(F)(F)F)n3)c2)cn1 [Example 133, 5-(3-{4-[3-(2,2,2-Trifluoro-ethoxy)-4-trifluoromethyl-phenyl]-6-trifluoromethyl-pyrimidin-2-yl}-phenyl)-pyridin-2-ylamine]
285	Nc1ccc(-c2cn(-c3nc(-c4ccc(C(F)(F)F)c(OCC(F)(F)F)c4)cc(C(F)(F)F)n3)cn2)cn1 [Example 134, 5-(1-{4-[3-(2,2,2-Trifluoro-ethoxy)-4-trifluoromethyl-phenyl]-6-trifluoromethyl-pyrimidin-2-yl}-1H-imidazol-4-yl)-pyridin-2-ylamine]
223	Nc1ccc(-c2cc(-c3nc(-c4ccc(C(F)(F)F)c(OCC(F)(F)F)c4)cc(C(F)(F)F)n3)ccn2)cn1 [Example 135, 4-{4-[3-(2,2,2-Trifluoro-ethoxy)-4-trifluoromethyl-phenyl]-6-trifluoromethyl-pyrimidin-2-yl}-[2,3′]bipyridinyl-6′-ylamine]
223	Nc1ncc(-c2cn(-c3nc(-c4cccc(C(F)(F)F)c4)cc(C(F)(F)F)n3)cn2)cn1 [Example 139, 5-{1-[4-Trifluoromethyl-6-(3-trifluoromethyl-phenyl)-pyrimidin-2-yl]-1H-imidazol-4-yl}-pyrimidin-2-ylamine]
162	Nc1ccc(-c2cccc(-c3nc(-c4cccc(C(F)(F)F)c4)cc(C(F)(F)F)n3)c2)cn1 [Example 140, 5-{3-[4-Trifluoromethyl-6-(3-trifluoromethyl-phenyl)-pyrimidin-2-yl]-phenyl}-pyridin-2-ylamine]
196	Nc1ccc(-c2cc(-c3nc(-c4cccc(C(F)(F)F)c4)cc(C(F)(F)F)n3)ccn2)cn1 [Example 141, 4-[4-Trifluoromethyl-6-(3-trifluoromethyl-phenyl)-pyrimidin-2-yl]-[2,3′]bipyridinyl-6′-ylamine]
285	Cc1nc(-c2ccc(N)nc2)cn1-c1nc(-c2ccc(C(F)(F)F)cc2)cc(C(F)(F)F)n1 [Example 142, 5-{2-Methyl-1-[4-trifluoromethyl-6-(4-trifluoromethyl-phenyl)-pyrimidin-2-yl]-1H-imidazol-4-yl}-pyridin-2-ylamine]
286.5	Cc1nc(-c2cnc(N)nc2)cn1-c1nc(-c2ccc(C(F)(F)F)cc2)cc(C(F)(F)F)n1 [Example 143, 5-{2-Methyl-1-[4-trifluoromethyl-6-(4-trifluoromethyl-phenyl)-pyrimidin-2-yl]-1H-imidazol-4-yl}-pyrimidin-2-ylamine]
170.5	Cc1cc(-c2ccc(Cl)c(Cl)c2)nc(-c2cccc(-c3ccc(N)nc3)c2)n1 [Example 147, 5-{3-[4-(3,4-Dichloro-phenyl)-6-methyl-pyrimidin-2-yl]-phenyl}-pyridin-2-ylamine]
190	FC(F)(F)c1ccc(-c2cc(C(F)(F)F)nc(-n3cnc(-c4cccnc4)n3)n2)cc1 [Example 149, 2-(3-Pyridin-3-yl-[1,2,4]triazol-1-yl)-4-trifluoromethyl-6-(4-trifluoromethyl-phenyl)-pyrimidine]
